Laboratory results: PubChem BioAssay AID1259345
Activity calls are given as the source filed them.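 How the source made its calls: active means IC50 below a set limit; inactive means the rest.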

Target: A2780 TERC promoter luciferase reporter, 16 h
Assay: TERC promoter activity modulators, SAR follow-up, cell-based, luciferase reporter, human (AID 1259345)

| Compound | IC50 |
| --- | --- |
| Cc1nc2cc(-c3ccc(C#CCO)cc3)nn2c(C)c1CCC(=O)O | inactive |
| Cc1nc2cc(-c3cccc(Br)c3)nn2c(C)c1CCC(=O)O | inactive |
